Where “and” joins values, the source holds several entries; their conditions need not be identical. Equal values may be shown once. Entries after “also recorded” stand apart in the source; their conditions may differ. Read-outs that look alike come from different tables or passages of the source.
Columns and labels:
HCN4 C-Linker-CNBD [1] = target: T1, HCN4 C-Linker-CNBD (Homo sapiens, UniProt Q9Y3Q4); assay: Competitive binding assay, displacement of 8-Fluo-cAMP, flow cytometry
T1 construct: the passenger domain human HCN4 C-Linker-CNBD; CtxB signal peptide (N, cleaved yes); His-Tag (N); made in house; host or cells: E. coli BL21 (OmpT-deficient)
T1 sequence (Q9Y3Q4 521-723 limits assumed): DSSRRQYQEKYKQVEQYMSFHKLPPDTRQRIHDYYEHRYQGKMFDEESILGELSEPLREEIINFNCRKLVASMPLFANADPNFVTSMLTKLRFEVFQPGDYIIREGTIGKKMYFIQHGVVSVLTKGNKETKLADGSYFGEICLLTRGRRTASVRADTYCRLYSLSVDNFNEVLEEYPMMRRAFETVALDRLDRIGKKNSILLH

[2] = target: HCN4 MBP-C-Linker-CNBD fusion protein; design: method as in PMID 24605759; details: ITC; cited from earlier work
[3] = target: purified HCN4 C-Linker-CNBD; details: cited from earlier work
[4] = target: purified HCN4 MBP-C-Linker-CNBD fusion protein; details: FP, cited from earlier work
[5] = target: maltose-binding protein (MBP) (Escherichia coli, UniProt P0AEX9); details: up to 4 µM 8-Fluo-cAMP
HCN4 C-Linker-CNBD [6] = target: T1, HCN4 C-Linker-CNBD; assay: Flow cytometry-based ligand-binding assay, 8-Fluo-cAMP on E. coli surface-displayed protein
[7] = target: purified HCN4 C-Linker-CNBD; details: SPR; cited from earlier work
[8] = target: purified HCN4 C-Linker-CNBD; details: ITC; cited from earlier work
[9] = ref 47, read-out: binding affinity (Kd)
[10] = 50 nM 8-Fluo-cAMP, 100 µM competitor

Q: Which IC50 (HCN4 C-Linker-CNBD [1]; 50 nM 8-Fluo-cAMP, read-out: IC50 for 8-Fluo-cAMP binding) does the source give for Nc1ncnc2c1ccn2[C@@H]1O[C@@H]2COP(=O)(O)O[C@H]2[C@H]1O [7-CH-cAMP, 7-Deazaadenosine-3,5′-cyclic monophosphate] here?
A: 230 ± 41 nM

Q: What about the Ki (HCN4 C-Linker-CNBD [1]; 50 nM 8-Fluo-cAMP, read-out: inhibitory constant (Ki), calculated) of the same compound?
A: 159 ± 29 nM

Q: What about the Kd [2] of the same compound?
A: 30 nM

Q: Which results are given for Nc1ncnc2c1nc(SCCNC(=S)Nc1ccc(-c3c4ccc(=O)cc-4oc4cc(O)ccc34)c(C(=O)O)c1)n2[C@@H]1O[C@@H]2COP(=O)(O)O[C@H]2[C@H]1O [8-Fluo-cAMP, 8-(2-[Fluoresceinyl]aminoethylthio)adenosine-3′,5′-cyclic monophosphate]?
A: Kd ([3]; ref 9, read-out: binding affinity (Kd)): 280 nM; Kd [3, 9]: 167 nM; Kd ([4]; ref 35, read-out: binding affinity (Kd)): 189 nM; Kd [4, 9]: 111 nM; unspecific binding to surface-displayed MBP (mFI) [5]: only a marginal increase in mFI; also recorded: no unspecific binding; concentration at which saturation of binding is attained (HCN4 C-Linker-CNBD [6]; mFI of cells displaying HCN4 C-Linker-CNBD): around 500 nM; Kd (HCN4 C-Linker-CNBD [6]; surface-displayed HCN4 C-Linker-CNBD on E. coli, 1 nM-4 µM ligand, 30 min, 30 °C, read-out: dissociation constant (Kd)): 173 ± 46 nM

Q: Which “effect on 8-Fluo-cAMP binding to the CNBD (mFI)” value (from here on “effect on 8-Fluo-cAMP binding”) (HCN4 C-Linker-CNBD [1]) does the source give for Nc1ncnc2c1ncn2C1OC2COP(=O)(O)OC2C1O (stereo not drawn) [cAMP, Adenosine-3′,5′-cyclic monophosphate] here?
A: decreased mFI

Q: What about the IC50 (HCN4 C-Linker-CNBD [1]; IC50 for 8-Fluo-cAMP binding) of the same compound?
A: 13000 nM and 16000 nM and 23000 nM and 27000 nM

Q: What about the Ki (HCN4 C-Linker-CNBD [1]; Ki determined graphically) of the same compound?
A: 11700 nM

Q: What about the Ki (HCN4 C-Linker-CNBD [1]; calculated Ki) of the same compound?
A: 8500 ± 2000 nM

Q: And the Kd [7]?
A: 1500 nM

Q: And the Kd [8]?
A: 800 nM

Q: For NCC1(CC(=O)O)CCCCC1 [gabapentin, Gabapentin], which “effect on 8-Fluo-cAMP binding” value (HCN4 C-Linker-CNBD [1]; [10]) is on record?
A: no influence; also recorded: no impact

Q: With COc1cc2c(cc1OC)CC(=O)N(CCCN(C)C[C@H]1Cc3cc(OC)c(OC)cc31)CC2 [ivabradine, Ivabradine] as the compound, how does the “effect on 8-Fluo-cAMP binding” value (HCN4 C-Linker-CNBD [1]; [10]) read?
A: no impact on ligand binding; also recorded: no influence
